Data: PMC3792051, “Polyenylpyrrole Derivatives Inhibit NLRP3 Inflammasome Activation and Inflammatory Mediator Expression by Reducing Reactive Oxygen Species Production and Mitogen-Activated Protein Kinase Activation” (PLoS ONE, 2013)

Columns and labels:
[1] = system: LPS-activated RAW 264.7 macrophages; assay: iNOS and COX-2 expression by Western blot; assay type: cell-based, murine; conditions: 30 min pretreatment, LPS 24 h
Method: Cells were washed twice with ice-cold phosphate-buffered saline (PBS) and lysed on ice for 5 min with lysis buffer (20 mM Tris-HCl, pH 7.5, 150 mM NaCl, 1 mM Na 2EDTA, 1 mM EGTA, 1% Triton X-100, 2.5 mM sodium pyrophosphate, 1 mM beta-glycerophosphate, 1 mM Na 3VO4, 1 µg/ml of leupeptin, 1 mM PMSF, protease inhibitor cocktail). The lysate was then centrifuged at 12,000 x g at 4 °C for 10 min and the pellet discarded. Proteins in the supernatant were separated by SDS-PAGE and electrotransferred to a PVDF membrane (EMD Millipore Corporation), which was then blocked by incubation for 1 h at room temperature in blocking buffer [(5% nonfat milk in PBS containing 0.1% Tween 20 (PBST)], then incubated for 2 h at room temperature with the primary antibody diluted in blocking buffer. After three washes in PBST, the membrane was incubated for 1 h at room temperature with an appropriate HRP-conjugated secondary antibody diluted in blocking buffer and developed using an enhanced chemiluminescence Western blot detection system (EMD Millipore Corporation).
To investigate the inhibitory effect of compounds 1h, 1i, and 1n on the LPS-induced inflammatory response, NO levels in the supernatants of RAW 264.7 macrophages incubated with DMSO (vehicle) or compound 1h, 1i, or 1n for 30 min before, and during, incubation for 24 h with LPS (1 µg/ml) were measured by the Griess reaction. […] We next investigated their effect on the expression of iNOS, the NO producing enzyme, using Western blots.
Figure 2 Effect of polyenylpyrrole derivatives on the expression of inflammatory mediators in LPS-stimulated RAW 264.7 macrophages. In (A) and (C), the cells (5 × 10^5/ml; 1 ml) were incubated for 30 min with 2.5-40 µM compound 1h, 1i, or 1n or DMSO (vehicle), then LPS (1 µg/ml) was added and incubation continued for 24 h, then NO (A) or IL-6 or TNF-α (C) in the culture medium was assayed by the Griess reaction or ELISA, respectively. In (B), cells (5 × 10^5/ml; 1 ml) were pretreated for 30 min with 2.5-40 µM compound 1h or DMSO, then LPS (1 µg/ml) was added and incubation continued for 24 h, then expression of iNOS and COX-2 was measured by Western blotting. The fold increase is the intensity of the band of interest divided by that of the actin band normalized to the corresponding value for the 0 LPS/0 inhibitor control.

[2] = system: NLRP3 inflammasome in LPS+ATP-activated peritoneal macrophages; assay: NLRP3 inflammasome-mediated IL-1β secretion (ELISA); assay type: cell-based, mouse; conditions: compound 10-40 µM 30 min before LPS 5.5 h, then ATP 5 mM 30 min
Method: The effects of the test samples on IL-1β, TNF-α, and IL-6 production were measured by ELISA according to the manufacturer’s instructions. In brief, 50 µl of biotinylated antibody reagent and 50 µl of supernatant were added to a stripwell plate precoated with anti-mouse IL-1β, TNF-α, or IL-6 antibodies, which was then incubated at room temperature for 2 h. After washing the plate three times with washing buffer, 100 µl of diluted streptavidin-HRP concentrate was added to each well and the plate incubated at room temperature for 30 min. […] After addition of 100 µl of stop solution to each well, the absorbance at 450 nm of each well was measured on a microplate reader. […]
Figure 4 Effect of compound 1h on NLRP3 inflammasome activation in LPS+ATP-activated J774A.1 macrophages. (A) J774A.1 macrophages (1 × 10^6/ml; 1 ml) or (B) peritoneal macrophages (1 × 10^5/ml; 1 ml) were incubated with 10-40 µM compound 1h or DMSO for 30 min, then LPS (1 µg/ml) was added and incubation continued for 5.5 h, then the cells were stimulated with ATP (5 mM) for an additional 30 min, then IL-1β in the culture medium was measured by ELISA (A, upper panel; B) and levels of active caspase-1 (p10) (A, lower panel) measured by Western blotting. […]

[3] = system: LPS-activated J774A.1 macrophages; assay: IL-6 and TNF-α secretion by ELISA; assay type: cell-based, murine; conditions: J774A.1, 10-40 µM, LPS 1 µg/ml 24 h
Method: (§1) The effects of the test samples on IL-1β, TNF-α, and IL-6 production were measured by ELISA according to the manufacturer’s instructions. In brief, 50 µl of biotinylated antibody reagent and 50 µl of supernatant were added to a stripwell plate precoated with anti-mouse IL-1β, TNF-α, or IL-6 antibodies, which was then incubated at room temperature for 2 h. After washing the plate three times with washing buffer, 100 µl of diluted streptavidin-HRP concentrate was added to each well and the plate incubated at room temperature for 30 min. The washing process was repeated, then 100 µl of a premixed tetramethylbenzidine substrate solution was added to each well and the plate incubated at room temperature in the dark for 30 min. After addition of 100 µl of stop solution to each well, the absorbance at 450 nm of each well was measured on a microplate reader.
(§2) Figure 3 Effect of compound 1h on LPS-induced secretion of IL-6 and TNF-α by J774A.1 macrophages, peritoneal macrophages, and JAWSII dendritic cells. (A) J774A.1 macrophages, (B) peritoneal macrophages, or (C) JAWSII dendritic cells (all 4 × 10^5/ml; 1 ml) were incubated for 30 min with 10-40 µM compound 1h or DMSO, then LPS (1 µg/ml) was added and incubation continued for 24 h, then IL-6 levels (left panels) and TNF-α levels (right panels) in the culture medium were measured by ELISA. The data are expressed as the mean ± SD for three separate experiments. *, **, and *** indicate a significant difference at the level of p < 0.05, p < 0.01, or p < 0.001, respectively, compared to the DMSO/LPS group.

[4] = system: LPS-activated JAWSII dendritic cells; assay: IL-6 and TNF-α secretion by ELISA; assay type: cell-based, murine; conditions: 10-40 µM, LPS 1 µg/ml 24 h
Method: as §1, §2

Structure (SMILES): O=c1cc(O)cc(/C=C/C=C/C=C/C=C/c2[nH]ccc2Cl)o1 [compound 1h]
- COX-2 expression ([1]; 0-40 µM): did not affect expression of COX-2
- LPS-induced iNOS expression ([1]; 0-40 µM): reduced LPS-induced iNOS expression
- Concentration at which reduction of LPS-induced iNOS expression is significant ([1]; Western blot): 5 to 40 µM
- IL-1β secretion [2]: inhibited IL-1β secretion by primary peritoneal macrophages
- LPS-induced IL-6 secretion [3]: reduced secretion of IL-6 and TNF-α
- LPS-induced TNF-α secretion [3]: reduced secretion of IL-6 and TNF-α
- LPS-induced IL-6 secretion [4]: reduced LPS-induced IL-6 and TNF-α secretion
- LPS-induced TNF-α secretion [4]: reduced LPS-induced IL-6 and TNF-α secretion
